# PMC4595804, “A strategy to discover decoy chemokine ligands with an anti-inflammatory activity” (Scientific Reports, 2015)
# Key:
# Assay type in all cases: cell-based
# CCL22 [1] = target: T1, CCL22 (Homo sapiens, UniProt O00626); test: CCL22-induced EGFP-CCR4 receptor internalization (flow cytometry); details: 100 nM CCL22, 30 min, 0.03–3 μM compound; read-out: half-maximal efficiency, reduction of CCL22-induced CCR4 internalization
# T1 construct: codes for the mature CCL17 or CCL22 with an N-terminal thioredoxin-hexahistidin (TRX- (His)6) tag; thioredoxin (TRX) (N, cleaved yes); (His)6 (N, cleaved yes); made in house; host or cells: E. coli BL21 (DE3)
# T1 sequence (O00626 25-93): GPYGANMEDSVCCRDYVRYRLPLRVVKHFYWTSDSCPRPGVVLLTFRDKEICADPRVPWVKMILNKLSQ
# Method: Figure 6 (a) Selectivity of CCL17 and CCL22 neutraligands towards 10 chemokines according to the “neutraligand protocol”. […] Each column represents the mean (block) ± SD (bars) of n = 3 experiments performed in triplicate. *p < 0.05; **p < 0.01; ***p < 0.005 as compared to chemokine + DMSO. (b) Chemokine neutraligands inhibited CCR4 endocytosis induced by CCL22 or CCL17. EGFP-CCR4^+ HEK cells were incubated for 30 min with DMSO or chemokine (100 nM CCL22 or CCL17) in the presence or absence of test compounds. […] Cell surface EGFP-tagged CCR4 receptors were measured by EGFP antibody labeling and flow cytometry analysis. CCR4 internalization was expressed as a percentage of total receptor surface expression calculated using control cells incubated with DMSO (100%). Each column represents the mean (block) ± SD (bars) of n = 3 experiments performed in triplicate. *p < 0.05; **p < 0.01; ***p < 0.005 as compared to chemokine alone. (c,d) Inhibition of CCL17 and CCL22- induced CCR4^+HUT78 T cell chemotaxis by neutraligands. […] The number of migrating cells in the presence of chemokine and compounds were expressed as the corresponding percentages. Results were analyzed by fitting the experimental curves (% of migrating cells vs log compound concentration) using the Kaleidagraph software program, and the corresponding IC50 values were calculated. […]
# CCL22 [2] = target: T1, CCL22; test: Scratch wound assay, CCL22-mediated HaCat cell migration; details: HaCat cells, 72 h, read-out: inhibition of CCL22-mediated wound closure
# Method: (§1) soluble formazan dye which can be detected by absorbance at 420-480nm. HUT78 T cells (or HaCat cells) were seeded on 24-well plates (200,000 cells per well) and were incubated […]
# (§2) concentration ≤1% on cells). The background control was reserved as one well containing the culture medium only. The plates were incubated for 72h at 37°C. Three days later, the medium containing the neutraligands was removed, and WST-1 reagent (1:10 final dilution) (Ozyme) was added to each well for a 2h incubation at 37°C as the manufacturer’s recommendation. The plates were shaken and absorbance was measured at 450nm (reference wavelength 690nm) against the background control, using a multiwell plate reader (EnVision, Perkin Elmer). Assays were performed as three independent replicates.
# (§3) In vitro cell migration assay (scratch wound test) […]
# (§4) the wound closure was determined as the difference between wound width at times 0 and 72h. […]
# (§5) doses). After 24h, cytotoxicity was evaluated in the wells using the Alamar Blue method. […]
# (§6) before AA treatment. The activity of COX2 was determined by measuring PGE2 (Cayman) in the supernatants by EIA. […]
# CCL17 = target: T2, CCL17 (Homo sapiens, UniProt Q92583); test: Scratch wound assay, CCL17-mediated HaCat cell migration; details: HaCat cells, 72 h, read-out: inhibition of CCL17-mediated wound closure
# T2 construct: codes for the mature CCL17 or CCL22 with an N-terminal thioredoxin-hexahistidin (TRX- (His)6) tag; thioredoxin (TRX) (N, cleaved yes); (His)6 (N, cleaved yes); made in house; host or cells: E. coli BL21 (DE3)
# T2 sequence (Q92583 24-94): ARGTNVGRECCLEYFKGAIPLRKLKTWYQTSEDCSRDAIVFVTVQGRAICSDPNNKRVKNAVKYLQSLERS
# Method: as §1, §2, §3, §4, §5, §6
IC50 (CCL22 [1]) [nM],inhibition at 10 µM (CCL22 [2]) [%],Structure (SMILES),inhibition at 10 µM (CCL17) [%]
~100,85.2,"O=C(OCC(O)CO)c1ccccc1O (stereo not drawn) [GPN136, 2,3-dihydroxypropyl 2-hydroxybenzoate]",–
–,–,"CC(C)=CCn1cnc2c1c(=O)n(C)c(=O)n2C [GPN279, 1,3-dimethyl-7-(3-methylbut-2-enyl)-1H-purine-2,6(3H, 7H)-dione]",81.4
